Experimental data reported in PMC12586182 (Frontiers in Oncology, 2025).

Assays:
Test in all cases: Kinase panel profiling at 1 µmol/L (mobility shift assay, Carna)
Type in all cases: biochemical
Details in all cases: 1 µmol/L of BTK inhibitor
CLK2 = target: T1, CLK2 (Homo sapiens, UniProt P49760)
T1 construct: purchased Carna Biosciences

CLK3 = target: T2, CLK3 (Homo sapiens, UniProt P49761)
T2 construct: purchased Carna Biosciences

NEK2 = target: T3, NEK2 (Homo sapiens, UniProt P51955)
T3 construct: purchased Carna Biosciences
T3 sequence (P51955 1-445): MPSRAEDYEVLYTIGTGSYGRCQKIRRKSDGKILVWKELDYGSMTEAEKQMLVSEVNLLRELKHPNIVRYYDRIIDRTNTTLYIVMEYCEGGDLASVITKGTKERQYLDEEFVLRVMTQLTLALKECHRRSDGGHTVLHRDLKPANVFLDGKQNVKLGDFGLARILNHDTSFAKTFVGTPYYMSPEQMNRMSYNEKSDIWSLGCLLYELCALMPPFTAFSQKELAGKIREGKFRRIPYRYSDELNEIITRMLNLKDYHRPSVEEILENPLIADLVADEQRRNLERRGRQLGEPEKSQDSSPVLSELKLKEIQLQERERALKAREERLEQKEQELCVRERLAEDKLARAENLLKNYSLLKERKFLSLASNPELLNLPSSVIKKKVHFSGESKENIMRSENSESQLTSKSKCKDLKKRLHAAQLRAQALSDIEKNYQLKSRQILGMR

p38δ = target: T4, p38δ (Homo sapiens, UniProt O15264)
T4 construct: purchased Carna Biosciences
T4 sequence (O15264 1-365): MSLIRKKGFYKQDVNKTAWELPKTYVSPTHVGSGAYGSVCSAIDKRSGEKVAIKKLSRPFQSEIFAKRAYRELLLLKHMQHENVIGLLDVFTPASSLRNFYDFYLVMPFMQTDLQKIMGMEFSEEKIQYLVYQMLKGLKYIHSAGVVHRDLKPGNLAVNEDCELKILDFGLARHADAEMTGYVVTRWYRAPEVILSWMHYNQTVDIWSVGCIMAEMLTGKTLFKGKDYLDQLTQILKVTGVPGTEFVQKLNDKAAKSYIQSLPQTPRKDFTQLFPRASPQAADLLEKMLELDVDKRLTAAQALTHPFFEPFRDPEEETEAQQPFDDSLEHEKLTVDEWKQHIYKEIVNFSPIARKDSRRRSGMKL

MST2 = target: T5, MST2 (Homo sapiens, UniProt Q13188)
T5 construct: purchased Carna Biosciences
T5 sequence (Q13188 1-491): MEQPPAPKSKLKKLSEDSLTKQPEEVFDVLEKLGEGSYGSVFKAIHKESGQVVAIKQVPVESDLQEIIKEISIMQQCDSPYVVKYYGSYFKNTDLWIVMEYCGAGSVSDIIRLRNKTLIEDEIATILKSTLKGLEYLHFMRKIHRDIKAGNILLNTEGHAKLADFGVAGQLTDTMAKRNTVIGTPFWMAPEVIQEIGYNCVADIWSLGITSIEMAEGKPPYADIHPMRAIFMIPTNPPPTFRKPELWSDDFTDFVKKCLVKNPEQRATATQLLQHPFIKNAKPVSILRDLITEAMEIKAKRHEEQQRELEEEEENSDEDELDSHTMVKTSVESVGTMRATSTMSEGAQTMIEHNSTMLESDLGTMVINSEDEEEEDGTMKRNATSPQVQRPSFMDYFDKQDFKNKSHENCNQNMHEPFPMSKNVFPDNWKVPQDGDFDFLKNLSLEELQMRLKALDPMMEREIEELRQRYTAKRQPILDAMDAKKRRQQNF

CaMK1δ = target: T6, CaMK1δ (Homo sapiens, UniProt Q8IU85)
T6 construct: purchased Carna Biosciences
T6 sequence (Q8IU85 whole entry): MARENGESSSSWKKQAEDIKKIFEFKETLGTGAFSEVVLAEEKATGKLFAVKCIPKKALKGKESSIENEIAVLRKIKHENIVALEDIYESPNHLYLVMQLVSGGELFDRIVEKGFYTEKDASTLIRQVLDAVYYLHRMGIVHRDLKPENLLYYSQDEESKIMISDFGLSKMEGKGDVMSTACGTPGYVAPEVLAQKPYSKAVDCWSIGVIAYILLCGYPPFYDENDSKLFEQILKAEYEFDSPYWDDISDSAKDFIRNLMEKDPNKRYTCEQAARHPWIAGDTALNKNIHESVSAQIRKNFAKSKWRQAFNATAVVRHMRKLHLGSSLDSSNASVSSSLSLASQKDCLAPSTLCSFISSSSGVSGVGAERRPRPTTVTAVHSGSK

PKCβ1 = target: T7, PKCβ1 (Homo sapiens, UniProt P05771)
T7 construct: purchased Carna Biosciences
T7 sequence (P05771 whole entry): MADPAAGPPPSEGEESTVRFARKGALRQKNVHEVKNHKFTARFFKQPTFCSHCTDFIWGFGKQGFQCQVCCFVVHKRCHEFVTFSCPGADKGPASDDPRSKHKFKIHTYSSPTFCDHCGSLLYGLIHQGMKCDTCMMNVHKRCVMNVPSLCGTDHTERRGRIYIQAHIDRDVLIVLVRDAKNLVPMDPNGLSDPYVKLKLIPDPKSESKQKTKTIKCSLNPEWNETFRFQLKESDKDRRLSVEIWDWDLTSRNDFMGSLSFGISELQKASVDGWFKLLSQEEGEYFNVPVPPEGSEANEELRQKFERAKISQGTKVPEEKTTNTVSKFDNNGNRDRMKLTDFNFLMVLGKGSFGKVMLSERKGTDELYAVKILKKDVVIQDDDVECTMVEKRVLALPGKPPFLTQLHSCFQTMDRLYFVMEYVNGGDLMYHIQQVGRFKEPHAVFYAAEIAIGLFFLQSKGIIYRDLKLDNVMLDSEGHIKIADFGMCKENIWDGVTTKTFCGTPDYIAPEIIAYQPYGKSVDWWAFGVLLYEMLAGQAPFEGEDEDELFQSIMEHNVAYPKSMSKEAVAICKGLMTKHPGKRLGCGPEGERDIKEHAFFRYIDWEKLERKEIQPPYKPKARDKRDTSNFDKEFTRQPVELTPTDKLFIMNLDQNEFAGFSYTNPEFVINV

p38β = target: T8, p38β (Homo sapiens, UniProt Q15759)
T8 construct: purchased Carna Biosciences
T8 sequence (Q15759 whole entry): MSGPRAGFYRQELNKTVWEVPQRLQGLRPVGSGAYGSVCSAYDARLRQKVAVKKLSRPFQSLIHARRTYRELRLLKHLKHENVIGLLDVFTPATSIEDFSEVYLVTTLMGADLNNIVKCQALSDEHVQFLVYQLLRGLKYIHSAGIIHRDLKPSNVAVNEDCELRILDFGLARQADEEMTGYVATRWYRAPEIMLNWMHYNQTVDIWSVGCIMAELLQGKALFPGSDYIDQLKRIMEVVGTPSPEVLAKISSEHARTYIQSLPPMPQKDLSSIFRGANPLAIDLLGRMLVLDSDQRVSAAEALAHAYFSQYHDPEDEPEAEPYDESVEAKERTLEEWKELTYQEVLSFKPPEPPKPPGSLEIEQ

JAK3 = target: T9, JAK3 (Homo sapiens, UniProt P52333)
T9 construct: purchased Carna Biosciences
T9 sequence (P52333 1-1124): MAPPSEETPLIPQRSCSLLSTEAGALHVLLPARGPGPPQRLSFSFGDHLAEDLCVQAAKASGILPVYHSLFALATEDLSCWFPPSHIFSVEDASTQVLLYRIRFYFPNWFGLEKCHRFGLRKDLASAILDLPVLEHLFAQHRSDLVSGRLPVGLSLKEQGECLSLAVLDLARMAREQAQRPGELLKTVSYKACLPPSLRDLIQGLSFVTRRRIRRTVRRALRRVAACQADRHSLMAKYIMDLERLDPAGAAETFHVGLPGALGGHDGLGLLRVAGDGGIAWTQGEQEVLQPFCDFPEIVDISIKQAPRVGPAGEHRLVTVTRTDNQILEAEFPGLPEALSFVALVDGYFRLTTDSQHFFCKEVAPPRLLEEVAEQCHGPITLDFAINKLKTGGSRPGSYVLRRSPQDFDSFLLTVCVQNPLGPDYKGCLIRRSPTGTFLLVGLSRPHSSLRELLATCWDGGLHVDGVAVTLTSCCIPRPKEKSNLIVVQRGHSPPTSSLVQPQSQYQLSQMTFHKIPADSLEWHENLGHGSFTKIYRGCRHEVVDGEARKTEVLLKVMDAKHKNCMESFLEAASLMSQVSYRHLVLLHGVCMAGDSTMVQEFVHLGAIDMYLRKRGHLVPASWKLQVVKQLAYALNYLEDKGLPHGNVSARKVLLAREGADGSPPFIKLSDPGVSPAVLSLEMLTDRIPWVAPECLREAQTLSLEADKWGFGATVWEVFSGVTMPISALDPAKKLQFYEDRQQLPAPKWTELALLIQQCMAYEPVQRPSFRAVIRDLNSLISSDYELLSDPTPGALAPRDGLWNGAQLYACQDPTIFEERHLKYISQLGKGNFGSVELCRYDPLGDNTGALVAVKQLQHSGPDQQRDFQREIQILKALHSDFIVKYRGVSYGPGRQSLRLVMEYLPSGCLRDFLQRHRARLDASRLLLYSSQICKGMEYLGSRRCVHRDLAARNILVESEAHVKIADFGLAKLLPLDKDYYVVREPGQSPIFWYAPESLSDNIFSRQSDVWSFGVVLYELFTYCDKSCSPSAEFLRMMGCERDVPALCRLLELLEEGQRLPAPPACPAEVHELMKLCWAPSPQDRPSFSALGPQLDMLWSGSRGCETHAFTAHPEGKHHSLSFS

LTK = target: T10, LTK (Homo sapiens, UniProt P29376)
T10 construct: purchased Carna Biosciences
T10 sequence (P29376 17-864): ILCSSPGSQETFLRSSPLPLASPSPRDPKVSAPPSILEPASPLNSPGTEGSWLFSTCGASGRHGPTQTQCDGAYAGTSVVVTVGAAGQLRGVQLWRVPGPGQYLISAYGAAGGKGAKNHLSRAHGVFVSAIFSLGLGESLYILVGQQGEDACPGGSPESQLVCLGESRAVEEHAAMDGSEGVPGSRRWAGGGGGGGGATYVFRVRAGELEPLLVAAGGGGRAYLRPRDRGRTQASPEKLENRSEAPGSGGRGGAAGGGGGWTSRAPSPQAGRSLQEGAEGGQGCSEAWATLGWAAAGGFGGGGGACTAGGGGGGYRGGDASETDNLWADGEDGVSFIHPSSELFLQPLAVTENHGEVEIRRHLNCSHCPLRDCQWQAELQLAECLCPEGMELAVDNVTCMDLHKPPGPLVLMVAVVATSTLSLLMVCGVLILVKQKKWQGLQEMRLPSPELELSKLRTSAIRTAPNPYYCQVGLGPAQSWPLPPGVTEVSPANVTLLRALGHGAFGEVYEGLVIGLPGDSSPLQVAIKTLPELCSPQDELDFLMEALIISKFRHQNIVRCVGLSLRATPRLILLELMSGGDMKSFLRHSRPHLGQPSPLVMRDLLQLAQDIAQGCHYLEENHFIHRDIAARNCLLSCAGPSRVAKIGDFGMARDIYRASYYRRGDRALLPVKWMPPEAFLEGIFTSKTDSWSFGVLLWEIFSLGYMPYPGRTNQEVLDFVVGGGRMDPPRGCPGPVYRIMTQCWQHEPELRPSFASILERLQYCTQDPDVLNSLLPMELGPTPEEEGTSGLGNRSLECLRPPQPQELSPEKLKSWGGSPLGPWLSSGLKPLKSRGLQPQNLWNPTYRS

T1 sequence (P49760 whole entry): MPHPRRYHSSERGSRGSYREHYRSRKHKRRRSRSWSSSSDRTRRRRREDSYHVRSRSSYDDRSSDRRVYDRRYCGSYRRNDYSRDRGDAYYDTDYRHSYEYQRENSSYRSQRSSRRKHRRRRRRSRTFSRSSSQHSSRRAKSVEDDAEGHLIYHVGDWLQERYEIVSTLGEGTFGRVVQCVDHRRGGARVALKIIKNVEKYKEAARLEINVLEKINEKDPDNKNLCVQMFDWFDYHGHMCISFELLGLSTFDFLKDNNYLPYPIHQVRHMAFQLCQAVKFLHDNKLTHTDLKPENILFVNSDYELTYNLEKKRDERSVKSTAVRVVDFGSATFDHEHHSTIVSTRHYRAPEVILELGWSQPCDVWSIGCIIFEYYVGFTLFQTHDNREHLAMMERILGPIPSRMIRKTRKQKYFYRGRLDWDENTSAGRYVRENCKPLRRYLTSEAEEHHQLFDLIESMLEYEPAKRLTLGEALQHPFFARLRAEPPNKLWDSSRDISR
T2 sequence (P49761 whole entry): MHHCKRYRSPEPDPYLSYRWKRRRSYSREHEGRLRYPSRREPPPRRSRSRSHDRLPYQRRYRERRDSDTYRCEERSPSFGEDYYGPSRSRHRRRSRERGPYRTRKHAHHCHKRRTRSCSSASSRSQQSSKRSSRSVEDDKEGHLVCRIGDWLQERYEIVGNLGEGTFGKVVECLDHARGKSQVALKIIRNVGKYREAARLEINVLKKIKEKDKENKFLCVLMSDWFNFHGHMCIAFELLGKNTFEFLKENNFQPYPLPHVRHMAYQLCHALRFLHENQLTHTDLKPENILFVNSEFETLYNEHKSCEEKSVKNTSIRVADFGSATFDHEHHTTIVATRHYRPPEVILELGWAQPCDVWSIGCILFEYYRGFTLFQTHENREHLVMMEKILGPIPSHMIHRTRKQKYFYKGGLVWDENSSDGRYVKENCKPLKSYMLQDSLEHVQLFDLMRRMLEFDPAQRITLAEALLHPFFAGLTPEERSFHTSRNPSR

SMILES | Percentage inhibition of kinase enzyme activity (CLK2) | Percentage inhibition of kinase enzyme activity (CLK3) | Percentage inhibition of kinase enzyme activity (NEK2) | Percentage inhibition of kinase enzyme activity (p38δ) | Percentage inhibition of kinase enzyme activity (MST2) | Percentage inhibition of kinase enzyme activity (CaMK1δ) | Percentage inhibition of kinase enzyme activity (PKCβ1) | Percentage inhibition of kinase enzyme activity (p38β) | Percentage inhibition of kinase enzyme activity (JAK3) | Percentage inhibition of kinase enzyme activity (LTK)
CC#CC(=O)N1CCC[C@H]1c1nc(-c2ccc(C(=O)Nc3ccccn3)cc2)c2c(N)nccn12 [acalabrutinib] | -6.97% | -14.91% | -6.35% | -1.74% | -3.46% | -5.01% | -10.97% | -3.08% | -1.00% | 10.06%
C=CC(=O)N1CCC[C@@H](n2nc(-c3ccc(Oc4ccccc4)cc3)c3c(N)ncnc32)C1 [ibrutinib] |  |  | 6.64% | -3.68% | 16.65% | 4.85% | -2.90% | 9.06% | 90.92% | 2.76%
O=C(c1ccc(Oc2ccccc2)cc1Cl)c1c[nH]c2ncnc(N[C@@H]3CC[C@@H](CO)OC3)c12 [nemtabrutinib] | 56.28% | -2.19% | 74.64% | -5.79% | 86.96% | 9.32% | -3.07% | 12.08% | 97.48% | 
C=CC(=O)N1CCC([C@@H]2CCNc3c(C(N)=O)c(-c4ccc(Oc5ccccc5)cc4)nn32)CC1 [zanubrutinib] |  |  |  |  |  |  |  |  | 10.83% | 55.84%
COc1ccc(F)cc1C(=O)NCc1ccc(-c2nn([C@@H](C)C(F)(F)F)c(N)c2C(N)=O)cc1 [pirtobrutinib] | 10.54% | 14.87% | 2.00% | -1.92% | 6.74% | 2.74% | 5.78% | 2.61% | -1.25% | -0.40%
